In a melting point compilation (Tetko et al.; mined from patent text by program, amines drawn as free bases though some values may be those of a salt) one finds melting point data, which are given here for 91 compounds.

Broadly, the melting point is the temperature, or range, at which the solid turns liquid.

As to `Cc1cncc2c1C(=N)N(Cc1ccccc1)S2(=O)=O`, the melting point was 37 to 39 °C.

`O=C(O)c1cccc(CSCCNC(=O)c2c(Cl)cccc2Cl)c1` had a melting point of 165 to 166 °C.

Compound `O=C(NCC1(c2ccccc2)CCCC1)Nc1ccc(F)cc1F` gave a melting point of 160 to 161 °C.

For the compound `COc1ccc(C[C@@H](NC(=O)CCCc2ccccc2)[C@@H](O)c2ccc(F)cc2)cc1` (racemic), the melting point was in the range of 130 to 131 °C.

In the case of `COc1c(CC(=O)O)cccc1CC(=O)O`, the melting point is 184 to 186 °C.

Turning to `O=C(O)c1cccc(-n2c(=O)c3c(Cc4ccccc4)n[nH]c3c3cccnc32)c1`, the melting point lay within 300 to 305 °C.

The compound `OCc1nn(C(c2ccccc2)(c2ccccc2)c2ccccc2)c2ccccc12` came in with a melting point of 192 to 193 °C.

Regarding `CNC(=O)Oc1ccc2c(ccn2NCCCc2ccncc2F)c1`, the melting point lay within 165 to 166 °C.

As to `O=C1CC(Sc2nnc(S)s2)C(=O)O1` (stereo unspecified), the melting point lay in the range of 194 to 196 °C.

As to `COc1cc(CNC(=O)c2ccc(Cl)cc2OCC(=O)O)cc(OC)c1`, the melting point was 163 °C.

`CCCCCCCCc1ccc2nc(-c3ccc(COC(CCCCCC)C(F)(F)F)cc3)sc2c1` (stereo unspecified) displayed a melting point of 37.2 °C.

`CC(C)Cc1c[nH]c(-c2ccnc(NC(=O)c3ccccc3)c2)n1` came in with a melting point of 103 to 105 °C.

For `O=C1C[C@@H]2[C@@H](CC[C@H](CCc3ccccc3)OC3CCCCO3)[C@H](OC(=O)c3ccc(-c4ccccc4)cc3)C[C@@H]2O1` (stereo partly specified), the melting point lay within 103 to 105 °C.

Consider `Cc1ccnc(NC(N)=S)c1`, for which the melting point was 210 to 212 °C.

In the case of `CC(C#N)Oc1ccc(Oc2ccc(C(F)(F)F)cc2)cc1` (stereo unspecified), the melting point was in the range of 53 to 56 °C.

Regarding `Nc1ncnc2c1ncn2[C@H]1C[C@@H](CO)C1`, the melting point fell in the range of 85 to 88 °C.

The compound `N#CCCNC(=O)c1cccc(-c2ncc3ccn(Cc4ccc(Cl)cc4Cl)c3n2)c1` came in with a melting point of 198 to 199 °C.

The compound `CCC12CCC3C4CCC(=O)C=C4CCC3C1CCC2OC(=O)c1ccccc1` (stereo unspecified) had a melting point of 141 to 149 °C.

On to `N#Cc1cc2cc(O)c(O)cc2s1`, for which the melting point lay in the range of 229 to 230 °C.

`CC(C(=O)O)c1ccc(-c2nc3ccccc3o2)cc1` (stereo unspecified) yielded a melting point of 174 to 178 °C.

`COc1ccc(OC)c2c1CCC(OC(C)=O)(C(C)=O)C2` (stereo unspecified) registered a melting point of 120 to 122 °C.

Turning to `O=C1N(c2ccccc2)CC(CCl)C1(Cl)Cl` (stereo unspecified), the melting point lay within 133 to 134 °C.

Compound `Cn1ncnc1COc1nn2c(-c3cccc(F)c3)nncc2c1-c1ccccc1` displayed a melting point of 198 °C.

`CCc1ccc(C)c(NC(=O)C(C)(C)C)n1`: the melting point fell in the range of 72 to 75 °C.

`O=C(CC12CC3CC(CC(C3)C1)C2)Nc1cccc2nc(CCCNCCCO)ccc12` registered a melting point of 130 to 135 °C.

As to `CC(C)(C)c1ccc2oc(C(=O)COc3ccc(C(=O)O)cc3)cc2c1`, the melting point lay in the range of 210 to 211 °C.

For the compound `CN(C)Cc1ccc(Cc2cnc(N[N+](=O)[O-])[nH]c2=O)cc1`, the melting point lay within 214 to 217 °C.

Consider `CON=C(N)Nc1nc(C)nc(OC)n1`, for which the melting point was determined as 142 °C.

In turn, `CCOC(=O)c1ccc(/C=C(\C)c2cc3c(cc2OC)C(C)(C)CCC3(C)C)cc1` gave a melting point of 97 to 98 °C.

For the compound `CCN(C(=O)C(C)(C)C)c1ccc(F)cc1F`, the melting point lay within 69 to 71 °C.

As to `C=CCn1c(C)c(C)c2cnnc(OCc3ccc(Cl)cc3Cl)c21`, the melting point was in the range of 98 to 99 °C.

On to `CC(C)(CCCCCNS(=O)(=O)c1ccc(Cl)cc1)C(=O)O`, for which the melting point was in the range of 132 to 133 °C.

In turn, `O=C(O)C(=NOCc1ccc(Cl)cc1Cl)c1csc(NC(=O)C(F)(F)F)n1` yielded a melting point of 170 to 176 °C.

Turning to `O=C1c2cccc([N+](=O)[O-])c2C(=O)N1CCCCN1C(=O)c2cccc([N+](=O)[O-])c2C1=O`, the melting point was determined as 245 °C.

`O=c1cc(-c2ccncn2)nc2n1CCCCC2C1CC1` (racemic) displayed a melting point of 139 to 140 °C.

As for `O=[N+]([O-])c1cc(O)c(F)cc1F`, the melting point lay in the range of 117 to 119 °C.

`CCOC(=O)C(C)(C)Oc1ccc(CCCC(=O)NN(Cc2cccc(OC)c2)C(N)=O)cc1` yielded a melting point of 91.9 to 93.4 °C.

`N#Cc1c(CNS(=O)(=O)c2c(F)cccc2F)nn(-c2ccc(Cl)cc2Cl)c1-c1ccc(O)cc1` had a melting point of 196 °C.

`COc1cc(C(S)CS)cc(OC)c1OC` (stereo unspecified) came in with a melting point of 72.5 to 73.5 °C.

The compound `COc1cc2cc(CO)c(CO)c(-c3ccncc3)c2cc1OC` showed a melting point of 118 to 120 °C.

`CCOC(=O)C(C(C)=O)C1NC(=O)c2sccc2-n2cccc21` (stereo unspecified) displayed a melting point of 196 °C.

`O=C(O)C1Cc2cc(O)c(O)cc2CN1` (stereo unspecified) returned a melting point of 288 °C.

With `CCOCc1nc2c(N)nc3cc(-c4ccsc4)ccc3c2n1CC(C)C`, the melting point fell in the range of 187 to 189 °C.

Take `O=c1nc(-c2ccccn2)sc2ccc(Br)cc12`: the melting point was in the range of 253 to 254 °C.

The compound `COc1ccc(C2CNC(=O)C2)cc1OCCN1CCN(c2ccccc2)CC1` (stereo unspecified) gave a melting point of 140 to 141 °C.

`CNC1C(O)CC2C3CCC4CC(O)CCC4(C)C3CCC21C` (stereo unspecified) gave a melting point of 241 to 253 °C.

Take `CC(C)(CO)NC(=O)c1n[nH]cc1NC(=O)c1ccccn1`: the melting point is 193 to 195 °C.

Regarding `NN=Cc1ccc(CC(=O)NC2CCC3(CC2)CN(CC(=O)O)C(=O)O3)cc1` (stereo unspecified), the melting point was 193 to 196 °C.

Compound `COc1cccc2c1CCC(n1cc[nH]c1=S)C2` (stereo unspecified) gave a melting point of 233 to 235 °C.

`COc1cc(-c2ccc(O)cc2)ccc1C=O`: the melting point is 159 to 161 °C.

As to `Cn1nnnc1-c1ccc2oc3ncccc3c(=O)c2c1`, the melting point came to 248 °C.

As for `Cc1nc(NC(=O)c2cccc(C(F)(F)F)c2)sc1C(=O)NCc1ccccc1`, the melting point fell in the range of 195 to 196 °C.

On to `O=C(Nc1cc(C(F)(F)F)ccc1N1CCc2ccccc21)c1ccccc1`, for which the melting point is 114 to 119 °C.

`CCOc1c(N2CCC(Oc3ccc(CC(=O)N4CCN(c5ccccc5C)CC4C(N)=O)c(OC)c3)CC2)c(=O)c1=O` (stereo unspecified) had a melting point of 155 to 157 °C.

For `N#Cc1ncn2c1[C@@H]1CCCN1C(=O)c1cc(F)ccc1-2`, the melting point lay within 254 to 256 °C.

Compound `C=CCOc1ccc(Oc2ccc(C(=O)OC)cc2)cc1` gave a melting point of 75 °C.

`COc1nc2ccccc2nc1NC(=O)N1CCN(c2ccccc2C(C)C)CC1` displayed a melting point of 147 to 149 °C.

In turn, `Cn1cc(-c2nn(-c3cccc(C(F)(F)F)c3)ccc2=O)c(-c2ccccc2)n1` yielded a melting point of 181 to 183 °C.

`O=c1[nH]c2ccc(Cl)cc2s1` displayed a melting point of 212 to 213 °C.

For the compound `CC(C)(S)[C@@H]1C[C@H](CS)C(=O)N1` (relative stereo), the melting point was in the range of 159 to 161 °C.

`Cc1ccc(C#N)nc1` came in with a melting point of 72 to 74 °C.

Regarding `COc1ccc(NC(=N)c2cccnc2)cc1`, the melting point is 137 to 139 °C.

Consider `CCCc1ccc(C=NN=Cc2ccc(F)cc2)cc1`, for which the melting point worked out at 70.5 °C.

Consider `COC(=O)c1ccc(-c2coc(-c3ccc4c(c3)C(C)(C)CCC4(C)C)c2)cc1`, for which the melting point is 109 to 111 °C.

The compound `O=C(O)c1ccc(NCCOc2ccc3ccccc3c2)cc1` yielded a melting point of 208 to 211 °C.

In the case of `Cc1cc(-c2ccc(Cl)cc2)nc2c(C#Cc3ccc(C(C)(C)O)cc3)cnn12`, the melting point lay within 112 to 115 °C.

In turn, `Cc1cccc(Nc2cc(Cl)nc(SCC(=O)NN)n2)c1C` had a melting point of 185 to 189 °C.

The compound `CCc1nc2c(C)cc(C)nc2n1Cc1ccc2oc(-c3cccc(F)c3C(=O)O)c(Br)c2c1` yielded a melting point of 191 to 194 °C.

The compound `Nc1sc(CC(C(=O)O)C(=O)O)cc1C(=O)c1ccccc1Cl` returned a melting point of 150 to 160 °C.

`CC(C)C(=CC(CNC(=O)c1cccnc1)=NO)C(C)[N+](=O)[O-]` (stereo unspecified) showed a melting point of 132 to 135 °C.

`CCC1(C)CC(S(=O)(=O)Cc2c(F)cccc2F)=NO1` (stereo unspecified) gave a melting point of 64 to 65 °C.

`COc1cnc(CS(C)=O)nc1OC(=O)N(C)C` (stereo unspecified) returned a melting point of 122 °C.

The compound `O=C(O)C1CSC(c2cc(Cl)ccc2OCCO[N+](=O)[O-])N1` (stereo unspecified) came in with a melting point of 134 to 135 °C.

Take `C=C1C[C@@H]2[C@H](CC[C@]3(C)C(=O)CC[C@@H]23)[C@@]2(C)CCC(=O)C=C12`: the melting point lay in the range of 155 to 160 °C.

Regarding `Cn1c2c(c3cc(Cl)ccc31)CCC(C(=O)O)C2` (stereo unspecified), the melting point was 259 to 260 °C.

`COC(=O)C(Cc1c[nH]c2ccccc12)NC(=S)c1ccc2c(c1)OCO2` (stereo unspecified) displayed a melting point of 129 to 130 °C.

Consider `CSc1nn2c(N3CCN(Cc4ccccc4)CC3)cc(C)nc2c1S(=O)(=O)c1ccccc1`, for which the melting point lay in the range of 156 to 158 °C.

Consider `CC1(C)CCOc2cc(O)ccc21`, for which the melting point was in the range of 88 to 88.5 °C.

Take `CC1(C2N=NC(=O)O2)CC1` (stereo unspecified): the melting point lay in the range of 68 to 70 °C.

Compound `CNC(=O)C(Cc1ccc(OC)cc1)NC(=O)C(C)(CC(C)C)c1ccc(Cl)cc1S` (stereo unspecified) returned a melting point of 174 to 178 °C.

`CN(C)Cc1coc(-c2cccc(C3=Nc4ccc(-n5cccc5)cc4NC(=O)C3)c2)n1` displayed a melting point of 172 to 175 °C.

Consider `CCN(C)C(=O)NC(=N)SC`, for which the melting point lay in the range of 74 to 76 °C.

In turn, `CN1CCN(CCOc2ccccc2CC(=O)N2C[C@@H]3C(=O)CCC(c4ccccc4)(c4ccccc4)[C@@H]3C2)CC1` (racemic) registered a melting point of 78 °C.

Take `O=c1n(-c2cccc3ccccc23)c(=O)n(CCO)n1CCO`: the melting point lay within 211 to 212 °C.

Compound `COc1cc(C=O)cc2c1OC1(CCCC1)C2` returned a melting point of 54 °C.

With `COC(=O)c1cccc(-c2nc(-c3ccc(F)c(F)c3)cs2)c1`, the melting point lay within 147 to 148 °C.

`Cc1cnc(N2CCC(c3ccc([N+](=O)[O-])cc3)CC2)n1C` displayed a melting point of 178 to 179 °C.

On to `O=C1C2=C(NC3(OCCO3)C(c3ccccc3)=N2)c2ccccc21`, for which the melting point was 296 °C.

`COc1cc(Oc2cccc(C(F)(F)F)c2)nc(C(=O)NC=C(Cl)Cl)c1` registered a melting point of 123 to 125 °C.

In the case of `CC(=O)OCC(=O)C1=CCC2C3CCC4=CC(=O)C=CC4(C)C3(F)C(OC(C)=O)CC12C` (stereo unspecified), the melting point lay in the range of 294 to 296 °C.

Regarding `COc1ccccc1C1=NC(C)(C)CO1`, the melting point was 70 to 72 °C.
